Measured values from patent publication US20230303693A1, “BISPECIFIC ANTIBODY AGAINST CD3 AND CD20 IN COMBINATION THERAPY FOR TREATING DIFFUSE LARGE B-CELL LYMPHOMA” (GENMAB A/S, priority 2022, published 2023).
Read-outs that look alike come from different tables or passages of the source.

Columns and labels:
T cells [1] = test system: T cells
T cells [2] = test: T cell viability after 16 hours pre-incubation with CHP components; details: pretreatment of T cells, 16 hours (data not shown)
[3] = test system: CD20-expressing Raji-luc tumor cells; details: NOD-SCID mice injected with Raji-luc tumor cells and PBMCs; even in presence of excess IgG1-RTX-FEAR; cited from earlier work
[4] = test system: primary DLBCL and follicular lymphoma patient biopsies; details: cited from earlier work
[5] = test system: relapsed or refractory (R/R) B-NHL, highly refractory large B-cell lymphoma; details: monotherapy, n=157; cited from earlier work

**Q.** Which T cell viability (T cells [1]) does the source give for O=P1(N(CCCl)CCCl)NCCCO1 (stereo not drawn) [cyclophosphamide, 2H-1,3,2-Oxazaphosphorin-2-amine, N,N-bis(2-chloroethyl)tetrahydro-, 2-oxide] here?
**A.** did not impact T cell viability

**Q.** With COc1cccc2c1C(=O)c1c(O)c3c(c(O)c1C2=O)C[C@@](O)(C(=O)CO)C[C@@H]3O[C@H]1C[C@H](N)[C@H](O)[C@H](C)O1 [doxorubicin] as the compound, how does the T cell viability (T cells [2]) read?
**A.** led to a reduction in T cell viability

**Q.** With epcoritamab as the compound, how does the tumor growth [3] read?
**A.** effectively reduce tumor growth

**Q.** What about the T-cell-mediated cytotoxicity ([4]; biopsies taken a certain amount of time after administration of an anti-CD20 antibody) of the same compound?
**A.** induced T-cell-mediated cytotoxicity

**Q.** What about the tumor cell kill ([4]; biopsy taken 2 weeks after administering anti-CD20 antibody) of the same compound?
**A.** up to 40%

**Q.** And the “complete response (CR) rate” value [5]?
**A.** 39%

**Q.** And the “median duration of response (DOR)” value [5]?
**A.** 12 months

**Q.** What about the “overall response rate (ORR)” value [5] of the same compound?
**A.** 63%

**Q.** And the safety profile [5]?
**A.** manageable safety profile
